5 compounds from patent publication US4029650A, “Novel derivatives of N-(3,4,5-trimethoxy cinnamoyl)piperazine and the process for preparing them” (priority 1974, dated 1977) can be followed below.

Molecules are shown by their SMILES. Where a name gives a salt, the structure may show the parent alone. Read-outs that look alike come from different tables or passages of the source.

Data set [1] is described as follows: Coronary vasodilatory action: increase of flow in the anterior interventricular artery, anaesthetised dog, intravenous. The format is in vivo.
A short description of data set [2]: Peripheral vasodilatory action: increase of femoral artery flow, anaesthetised dog, intra-arterial. The class given is in vivo. The settings on record: 500 μg/kg (0.5 mg/kg) i.a.
The nature of data set [3]: Cerebral vasodilatory properties: sub-cortical irrigation, anaesthetised cat. The format is in vivo. The settings on record: 8 mg/kg i.v. The source says: Administered to an anaesthetised cat by single intravenous injection, the derivatives of formula I are capable of increasing the sub-cortical irrigation measured according to a technique derived from the thermoconductimetric method of SEYLAZ.

Data set [4] can be described thus: Increase of flow and oxygenation of the coronary veinous sinus, intravenous perfusion. The class given is in vivo, dog. The protocol:
Furthermore, administered by intravenous perfusion, the derivatives of formula I are capable of increasing the flow and oxygenation of the coronary veinous sinus, the flow of the coronary veinous sinus being measured volumetrically by means of a modified MORAWITZ probe, whilst the oxygen content of the coronary veinous blood is calculated from the rate of hemoglobin saturation measured by hemoreflectometry.

A short description of another data set: Acute toxicity (mouse). The settings on record: in vivo; for mortality: read-out: Percentage mortality; for LD50: read-out: Acute toxicity (DL 50) (converted).
Data set [5] can be described thus: Antihypertensive properties in genetically hypertensive (vigil SHR) rat. The class given is in vivo. The settings on record: for Hypertensive action (vigil SHR rat), effect: 100 mg/kg p.o.
Where [6] appears, read: anaesthetised dog, 4 mg/kg i.v.
[7] abbreviates: 100 mg/kg po, genetically hypertensive rat.
The mark [8] stands for this setting: 17.5 mg/kg intravenous perfusion.
The mark [9] stands for this setting: 12.5 mg/kg i.v. perfused in 10 min. (1 ml/min).
[10] abbreviates: anaesthetised dog, 2 mg/kg i.v.
Setting [11] is: 12.7 mg/kg intravenous perfusion.

As for `COc1cc(C=CC(=O)N2CCN(CC(=O)N3CCc4ccccc4C3)CC2)cc(OC)c1OC` [75 0001, N-(3,4,5-trimethoxycinnamoyl)-N'-(1,2,3,4-tetrahydroisoquinolinocarbonylmethyl)piperazine], in data set [1] (setting [6]), the “duration of increase of flow in the anterior interventricular artery” value (shortened to “duration of increase of flow”) is on record as 19 min and the “increase of flow in the anterior interventricular artery” value stood at 45%. Further, in data set [2], the “duration of increase of femoral artery flow” value was determined as 7 min and the “increase of femoral artery flow” value is 106%. In addition, in data set [3], the “duration of increase in the sub-cortical flow” value was 22 min and the “increase in the sub-cortical flow” value was determined as 105%. Besides, in data set [4] (29 mg/kg intravenous perfusion), the “Increase of flow of the coronary veinous sinus” value is given as 88%, the “Increase of oxygenation of the coronary veinous sinus” value was determined as 142%, the “duration of effect on flow of the coronary veinous sinus” value was 15 min and the “duration of effect on oxygenation of the coronary veinous sinus” value was found to be 60 min. Moreover, the mortality in “Acute toxicity (mouse)” (iv, intravenously (mouse), 580 mg/kg) is around 50%. Further, the LD50 in “Acute toxicity (mouse)” (iv, mouse, i.v.) is 580 mg/kg.

For the compound `COc1ccc(CCN(C)C(=O)CN2CCN(C(=O)C=Cc3cc(OC)c(OC)c(OC)c3)CC2)cc1OC` [75 0002, N-(3,4,5-trimethoxycinnamoyl)-N'-[N"-methyl N"-(3,4-dimethoxyphenylethyl)aminocarbonylmethyl] piperazine], in data set [1] (setting [6]), the “duration of increase of flow” value is reported as 19 min and the “increase of flow in the anterior interventricular artery” value is listed as 100%. For the same compound, in data set [2], the “duration of increase of femoral artery flow” value is 8 min and the “increase of femoral artery flow” value is listed as 105%. Besides, in data set [4] (20 mg/kg intravenous perfusion), the “Increase of flow of the coronary veinous sinus” value is recorded as 124%, the “Increase of oxygenation of the coronary veinous sinus” value was found to be 214%, the “duration of effect on flow of the coronary veinous sinus” value came out at 15 min and the “duration of effect on oxygenation of the coronary veinous sinus” value worked out at 60 min. In the data set “Acute toxicity (mouse)” (iv, intravenously (mouse), 200 mg/kg), the mortality was around 50%. For the same compound, the LD50 in “Acute toxicity (mouse)” (iv, mouse, i.v.) was 200 mg/kg. Besides, in the data set “Acute toxicity (mouse)” (po, mouse, p.o.), the LD50 was 2000 mg/kg. For the same compound, in “Acute toxicity (mouse)” (mouse, po, 2000 mg/kg, orally (mouse), 2 000 mg/kg), the mortality stood at 30%.

As to `COc1cc(C=CC(=O)N2CCN(CC(=O)N3CCCCC3)CC2)cc(OC)c1OC.O=C(O)/C=C\C(=O)O` [74 0479, N-(3,4,5-trimethoxycinnamoyl)-N'-(piperidinocarbonylmethyl) piperazine maleate], in data set [1] (setting [6]), the “duration of increase of flow” value is 40 min and the “increase of flow in the anterior interventricular artery” value came to 190%. Further, in data set [2], the “duration of increase of femoral artery flow” value came out at 3 min and the “increase of femoral artery flow” value turned out to be 120%. Moreover, in data set [3], the “duration of increase in the sub-cortical flow” value amounted to 47 min and the “increase in the sub-cortical flow” value turned out to be 58%. In data set [5] (setting [7]), the “animals with systolic arterial pressure lowered by 30 mmHg” value was 60% and the “duration of lowering of the systolic arterial pressure” value is given as “exceeding 24 hours”. Also, the “lowering of the systolic arterial pressure” value in data set [5] (100 mg/kg po, genetically hypertensive rat, in 60% of the animals) is 30 mmHg. In data set [4] (setting [8]), the “Increase of flow of the coronary veinous sinus” value came to 50%, the “Increase of oxygenation of the coronary veinous sinus” value was determined as 132%, the “duration of effect on flow of the coronary veinous sinus” value stood at 15 min and the “duration of effect on oxygenation of the coronary veinous sinus” value stood at 30 min. For the same compound, the LD50 in “Acute toxicity (mouse)” (iv, mouse, i.v.) was 700 mg/kg. In addition, the LD50 in the data set “Acute toxicity (mouse)” (po, mouse, p.o.) was 2250 mg/kg. Also, the mortality in the data set “Acute toxicity (mouse)” (mouse, iv, 700 mg/kg, intravenously (mouse), 700 mg/kg) was around 50%. In addition, the mortality in “Acute toxicity (mouse)” (mouse, po, 250 mg/kg, orally (mouse), 2 250 mg/kg) was 50%.

With `COc1cc(C=CC(=O)N2CCN(CC(=O)N3CCCC3)CC2)cc(OC)c1OC` [67 350, reference compound], the “duration of increase of flow” value in data set [1] (setting [9]) is on record as 60 min. Also, in data set [1] (setting [9]), the “increase of flow in the anterior interventricular artery” value was 59%. Besides, the “duration of increase of femoral artery flow” value in data set [2] turned out to be 12 min. In data set [2], the “increase of femoral artery flow” value came out at 82%. Besides, the entries for the “Hypertensive action (vigil SHR rat), effect” value in data set [5] (4 h) and in data set [5] (24 h) were -40% and -20%, respectively. Moreover, the LD50 in “Acute toxicity (mouse)” (iv, mouse, i.v.) was 617 mg/kg; in the data set “Acute toxicity (mouse)” (po, mouse, p.o.), 1000 mg/kg. In addition, the mortality came to 50% in “Acute toxicity (mouse)” (mouse, iv, 617 mg/kg, intravenously (mouse), 617 mg/kg) and 50% in “Acute toxicity (mouse)” (mouse, po, 1000 mg/kg, orally (mouse), 1 000 mg/kg).

`COc1cc(C=CC(=O)N2CCN(CC(=O)N3CCCCCCC3)CC2)cc(OC)c1OC` [74 0678, N-(3,4,5-trimethoxycinnamoyl)-N'-(heptamethyleniminocarbonylmethyl) piperazine oxalate]: in data set [1] (setting [10]), the “duration of increase of flow” value was 8.3 min and the “increase of flow in the anterior interventricular artery” value turned out to be 148%. For the same compound, in data set [2], the “duration of increase of femoral artery flow” value turned out to be 4.5 min and the “increase of femoral artery flow” value is on record as 226%. Besides, in data set [3], the “duration of increase in the sub-cortical flow” value worked out at 5 min and the “increase in the sub-cortical flow” value worked out at 45%. In data set [4] (setting [11]), the “Increase of flow of the coronary veinous sinus” value was found to be 65%, the “Increase of oxygenation of the coronary veinous sinus” value was determined as 162%, the “duration of effect on flow of the coronary veinous sinus” value was 30 min and the “duration of effect on oxygenation of the coronary veinous sinus” value stood at 60 min. For the same compound, the mortality in “Acute toxicity (mouse)” (iv, intravenously (mouse), 255 mg/kg) was around 50%. Further, in “Acute toxicity (mouse)” (iv, mouse, i.v.), the LD50 was 255 mg/kg.
